The numbers were not newly measured in patent publication US7449451B2, “Use of multiple antioxidant micronutrients as systemic biological radioprotective agents against potential ionizing radiation risks” (priority 2002, dated 2008), which cites them from elsewhere.

For data set [1] the following is noted: in vivo.
Data set [2] concerns glutathione.
In data set [3] the test system is human beings.
Data set [4] concerns animals.
The subject of data set [5] is mitotic cells. Particulars: mitotic cells treated with cysteamine.
Data set [6] concerns mammalian cells in culture.
Data set [7] deals with animals and humans.
For data set [8], the system named is mice.

For the molecule `N[C@@H](CCC(=O)N[C@@H](CS)C(=O)NCC(=O)O)C(=O)O` [Glutathione, glutathione], the “hydrolysis in the intestine when ingested” value in data set [1] is recorded as “completely hydrolyzed in the intestine”.

`CC(=O)N[C@@H](CS)C(=O)O` [N-acetylcysteine]: the “intracellular levels of glutathione” value in data set [2] was “actively increase the intracellular levels of glutathione without causing any toxicity”. For the same molecule, in data set [3], the tolerability in humans result is “tolerated by humans very well”.

For the molecule `O=C(O)CCCCC1CCSS1` (stereo not drawn) [alpha lipoic acid], in data set [2], the “intracellular levels of glutathione” value is given as “actively increase the intracellular levels of glutathione without causing any toxicity”. Also, the tolerability in humans entry in data set [3] is “tolerated by humans very well”.

Consider `NCCS` [cysteamine], for which, in data set [4], the “protection against bone marrow and gastrointestinal radiation syndromes” value was “protects animals against bone marrow (2, 31) and gastrointestinal (32) radiation syndromes”. The “toxicity when administered to human beings” value in data set [3] (humans) is on record as “extremely toxic”. Further, the “resistance of mitotic cells to radiation” value in data set [5] is reported as “became very resistant to radiation”.

On to `Cc1c(C)c2c(c(C)c1OC(=O)CCC(=O)O)CC[C@@](C)(CCC[C@H](C)CCC[C@H](C)CCCC(C)C)O2` [d-alpha tocopheryl succinate], for which the “reduction of radiation-induced transformation” value in data set [6] is “actively reduces the incidence of radiation-induced transformation”. For the same molecule, the radioprotectant value entry in data set [7] is reported as “marked radioprotectant value”.

As for `CC1=C(/C=C/C(C)=C/C=C/C(C)=C/C=C/C=C(C)/C=C/C=C(C)/C=C/C2=C(C)CCCC2(C)C)C(C)(C)CCC1` [natural beta-carotene, beta-carotene], the “reduction of radiation-induced transformation” value in data set [6] is “most effectively reduces radiation-induced transformation”. For the same molecule, the radioprotectant value result in data set [7] is listed as “marked radioprotectant value”.

As to calcium ascorbate [vitamin C], the radioprotectant value entry in data set [7] is reported as “marked radioprotectant value”.

Turning to vitamin E, the “protection against lethal doses of cobalt-60” value in data set [8] was “good protection”.
